Results taken from US7998978B2 (Pfizer Inc., priority 2006, dated 2011).

biological target: T1, JNK1α1 (Homo sapiens, UniProt P45983); experiment: Coupled spectrophotometric (PK/LDH) JNK1α1 assay: % inhibition and Ki determination; type: biochemical; conditions: @1 uM; read-out: % Inhibition JNK-1
T1 construct: catalytic domain containing amino acids 1-364 and N-terminal hexahistidine tag; hexahistidine (His6) (N); made in house; host or cells: E. coli BL21 (DE3)
In short: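 Initial rates were taken from the absorbance decrease at 340 nm at 30° C. Ki was fitted with a tight-binding model over 11 concentrations (top 100 μM); single-point inhibition was tested at 1 or 10 μM.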

T1 sequence (P45983 1-364): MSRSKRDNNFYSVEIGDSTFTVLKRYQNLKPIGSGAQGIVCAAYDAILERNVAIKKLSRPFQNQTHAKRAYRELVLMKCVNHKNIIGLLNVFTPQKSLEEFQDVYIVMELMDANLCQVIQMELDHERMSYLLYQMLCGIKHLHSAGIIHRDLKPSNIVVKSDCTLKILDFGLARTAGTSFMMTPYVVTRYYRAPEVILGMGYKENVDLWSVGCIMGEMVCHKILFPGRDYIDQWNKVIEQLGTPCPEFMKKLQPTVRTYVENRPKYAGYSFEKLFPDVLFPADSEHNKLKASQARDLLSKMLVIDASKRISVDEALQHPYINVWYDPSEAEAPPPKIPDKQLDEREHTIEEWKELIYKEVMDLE

SMILES | inhibition at 1 µM [%]
O=C(NC1(CO)CCCC1)c1ccc2cnc(NC3CCCC3)nc2c1 [Example 421, 2-(cyclopentylamino)-N-[1-(hydroxymethyl)cyclopentyl]quinazoline-7-carboxamide] | 15
CC(C)Nc1ncc2ccc(C(=O)NC3(CO)CCCC3)cc2n1 [Example 423, N-[1-(hydroxymethyl)cyclopentyl]-2-(isopropylamino)quinazoline-7-carboxamide] | 15
CC(C)Nc1ncc2ccc(C(=O)NCCO)cc2n1 [Example 431, N-(2-hydroxyethyl)-2-(isopropylamino)quinazoline-7-carboxamide] | 15
CC(C)Nc1ncc2ccc(C(=O)N[C@@H]3COC[C@H]3O)cc2n1 [Example 432, N-((3R,4S)-4-hydroxytetrahydrofuran-3-yl]-2-(isopropylamino)quinazoline-7-carboxamide] | 15
O=C(N[C@@H]1COC[C@H]1O)c1ccc2cnc(NC3CCCC3)nc2c1 [Example 435, 2-(cyclopentylamino)-N-[(3R,4S)-4-hydroxytetrahydrofuran-3-yl]quinazoline-7-carboxamide] | 22

Other lines, results leading:

inhibition at 1 µM [%] | SMILES
13 | O=C(NC1(CO)CCCC1)c1ccc2cnc(NC3CCC3)nc2c1 [Example 422, 2-(cyctobutylamino)-N-[1-(hydroxymethyl)cyclopentyl]quinazoline-7-carboxamide]
22 | CC(C)[C@@H](CO)NC(=O)c1ccc2cnc(NC3CCC3)nc2c1 [Example 424, 2-(cyclobutylamino)-N-[(1S)-1-(hydroxymethyl)-2-methylpropyl]quinazoline-7-carboxamide]
11 | CC(C)Nc1ncc2ccc(C(=O)N[C@H](CO)C(C)C)cc2n1 [Example 425, N-[(1S)-1-(hydroxymethyl)-2-methylpropyl]-2-(isopropylamino)quinazoline-7-carboxamide]
23 | O=C(NCCO)c1ccc2cnc(NC3CCCCC3)nc2c1 [Example 426, 2-(cyclohexylamino)-N-(2-hydroxyethyl)quinazoline-7-carboxamide]
21 | O=C(NCCO)c1ccc2cnc(NC3CCCC3)nc2c1 [Example 427, 2-(cyclopentylamino)-N-(2-hydroxyethyl)quinazoline-7-carboxamide]
17 | O=C(N[C@H](CO)CC1CCCCC1)c1ccc2cnc(NC3CCC3)nc2c1 [Example 428, 2-(cyclobutylamino)-N-[(1S)-2-cyclohexyl-1-(hydroxymethyl)ethyl]quinazoline-7-carboxamide]
25 | CC(C)Nc1ncc2ccc(C(=O)N[C@H](CO)CC3CCCCC3)cc2n1 [Example 429, N-[(1S)-2-cyclohexyl-1-(hydroxymethyl)ethyl]-2-(isopropylamino)quinazoline-7-carboxamide]
11 | O=C(NCCO)c1ccc2cnc(NC3CCC3)nc2c1 [Example 430, 2-(cyclobutylamino)-N-(2-hydroxyethyl)quinazoline-7-carboxamide]
24 | O=C(N[C@@H]1COC[C@H]1O)c1ccc2cnc(NC3CCC3)nc2c1 [Example 433, 2-(cyclobutylamino)-N-[(3R,4S)-4-hydroxytetrahydrofuran-3-yl]quinazoline-7-carboxamide]
15 | CC(C)Nc1ncc2ccc(C(=O)N[C@@H](C)CO)cc2n1 [Example 434, N-[(1S)-2-hydroxy-1-methylethyl]-2-(isopropylamino)quinazoline-7-carboxamide]

same assay, conditions: @10 uM; read-out: % Inhibition JNK-1

inhibition at 10 µM [%] | SMILES
85 | CC[C@@H](CO)NC(=O)c1ccc2cnc(NC3CCCC3)nc2c1 [Example 436, 2-(cyctopentylamino)-N-[(1S)-1-(hydroxymethyl)propyl]quinazoline-7-carboxamide]
57 | C[C@@H](CO)NC(=O)c1ccc2cnc(NC3CCC3)nc2c1 [Example 437, 2-(cyclobutylamino)-N-[(1S)-2-hydroxy-1-methylethyl]quinazoline-7-carboxamide]
63 | CC(C)(CO)NC(=O)c1ccc2cnc(NC3CCCC3)nc2c1 [Example 438, 2-(cyclopentylamino)-N-(2-hydroxy-1,1-dimethylethyl)quinazoline-7-carboxamide]
44 | CC(C)(CO)NC(=O)c1ccc2cnc(NC3CCC3)nc2c1 [Example 439, 2-(cyclobutylamino)-N-(2-hydroxy-1,1-dimethylethyl)quinazoline-7-carboxamide]
48 | CC(C)Nc1ncc2ccc(C(=O)NC(C)(C)CO)cc2n1 [Example 440, N-(2-hydroxy-1,1-dimethylethyl)-2-(isopropylamino)quinazoline-7-carboxamide]

same assay, conditions: JNK-1

SMILES | Ki [nM]
CC[C@@H](CO)NC(=O)c1cccc2cnc(N[C@H]3CC[C@H](O)CC3)nc12 [Example 441, 2-[(trans-4-hydroxycyclohexyl)amino]-N-[(1S)-1-(hydroxymethyl)propyl]quinazoline-8-carboxamide] | 57
CCC(CO)NC(=O)c1cccc2cnc(N[C@H]3CC[C@H](O)CC3)nc12 (stereo partly drawn) [Example 442, 2-[(trans-4-hydroxycyclohexyl)amino]-N-[1-(hydroxymethyl)propyl]quinazoline-8-carboxamide] | 83
O=C(NCC(O)c1ccccc1)c1cccc2cnc(N[C@H]3CC[C@H](O)CC3)nc12 (stereo partly drawn) [Example 443, 2-[(trans-4-hydroxycyclohexyl)amino]-N-(2-hydroxy-2-phenylethyl)quinazoline-8-carboxamide] | 104
O=C(NCC1(O)CCOc2ccccc21)c1cccc2cnc(N[C@H]3CC[C@H](O)CC3)nc12 (stereo partly drawn) [Example 444, 2-[(trans-4-hydroxycyclohexyl)amino]-N-[(4-hydroxy-3,4-dihydro-2H-chromen-4-yl)methyl]quinazoline-8-carboxamide] | 106
O=C(N[C@@H]1CCCC[C@@H]1CO)c1cccc2cnc(N[C@H]3CC[C@H](O)CC3)nc12 [Example 446, 2-[(trans-4-hydroxycyclohexyl)amino]-N-[(1R,2S)-2-(hydroxymethyl)cyclohexyl]quinazoline-8-carboxamide] | 112
O=C(NC1CC1)c1cccc2cnc(N[C@H]3CC[C@H](O)CC3)nc12 [Example 447, N-cyclopropyl-2-[(trans-4-hydroxycyclohexyl)amino]quinazoline-8-carboxamide] | 119
O=C(NC1CCN(c2cccnn2)CC1)c1cccc2cnc(N[C@H]3CC[C@H](O)CC3)nc12 [Example 449, 2-[(trans-4-hydroxycyclohexyl)amino]-N-(1-pyridazin-3-ylpiperidin-4-yl)quinazoline-8-carboxamide] | 138
O=C(NCCCO)c1cccc2cnc(N[C@H]3CC[C@H](O)CC3)nc12 [Example 451, 2-[(trans-4-hydroxycyclohexyl)amino]-N-(3-hydroxypropyl)quinazoline-8-carboxamide] | 166
Cc1n[nH]c(C)c1CNC(=O)c1cccc2cnc(N[C@H]3CC[C@H](O)CC3)nc12 [Example 452, N-[(3,5-dimethyl-1H-pyrazol-4-yl)methyl]-2-[(trans-4-hydroxycyclohexyl)amino]quinazoline-8-carboxamide] | 166
CC1(CNC(=O)c2cccc3cnc(N[C@H]4CC[C@H](O)CC4)nc23)COC1 [Example 453] | 170
O=C(NC1(CO)CCCC1)c1cccc2cnc(N[C@H]3CC[C@H](O)CC3)nc12 [Example 454, 2-[(trans-4-hydroxycyclohexyl)amino]-N-[1-(hydroxymethyl)cyclopentyl]quinazoline-8-carboxamide] | 221
O=C(NC1(c2ccncc2)CC1)c1cccc2cnc(N[C@H]3CC[C@H](O)CC3)nc12 [Example 455, 2-[(trans-4-hydroxycyclohexyl)amino]-N-(1-pyridin-4-ylcyclopropyl)quinazoline-8-carboxamide] | 235
O=C(NCC(O)c1ccc(F)c(F)c1)c1cccc2cnc(N[C@H]3CC[C@H](O)CC3)nc12 (stereo partly drawn) [Example 456, N-[2-(3,4-difluorophenyl)-2-hydroxyethyl]-2-[(trans-4-hydroxycyclohexyl)amino]quinazoline-8-carboxamide] | 254
O=C(N[C@H]1CC[C@H](CO)CC1)c1cccc2cnc(N[C@H]3CC[C@H](O)CC3)nc12 [Example 457, 2-[(trans-4-hydroxycyclohexyl)amino]-N-[trans-4-(hydroxymethyl)cyclohexyl]quinazoline-8-carboxamide] | 275
CC[C@H](CO)NC(=O)c1cccc2cnc(N[C@H]3CC[C@H](O)CC3)nc12 [Example 458, 2-[(trans-4-hydroxycyclohexyl)amino]-N-[(1R)-1-(hydroxymethyl)propyl]quinazoline-8-carboxamide] | 374
O=C(N[C@@H]1Cc2ccccc2[C@H]1O)c1cccc2cnc(N[C@H]3CC[C@H](O)CC3)nc12 [Example 459, 2-[(trans-4-hydroxycyclohexyl)amino]-N-[(1R,2R)-1-hydroxy-2,3-dihydro-1H-inden-2-yl]quinazoline-8-carboxamide] | 399
O=C(NCC1(O)CCCC1)c1cccc2cnc(N[C@H]3CC[C@H](O)CC3)nc12 [Example 460, 2-[(trans-4-hydroxycyclohexyl)amino]-N-[(1-hydroxycyclopentyl)methyl]quinazoline-8-carboxamide] | 400
CCCNC(=O)c1cccc2cnc(N[C@H]3CC[C@H](O)CC3)nc12 [Example 461, 2-[(trans-4-hydroxycyclohexyl)amino]-N-propylquinazoline-8-carboxamide] | 451

Other lines, results leading:

Ki [nM] | SMILES
110 | CC(C)[C@@H](CO)NC(=O)c1cccc2cnc(N[C@H]3CC[C@H](O)CC3)nc12 [Example 445, 2-[(trans-4-hydroxycyclohexyl)amino]-N-[(1S)-1-(hydroxymethyl)-2-methylpropyl]quinazoline-8-carboxamide]
144 | CC(C)C(CO)NC(=O)c1cccc2cnc(N[C@H]3CC[C@H](O)CC3)nc12 (stereo partly drawn) [Example 450, 2-[(trans-4-hydroxycyclohexyl)amino]-N-[1-(hydroxymethyl)-2-methylpropyl]quinazoline-8-carboxamide]
